For one data set, the system named is TamR3 cells. Nature of the data set: PrestoBlue viability assay, TamR3. Type of data set: cell-based. The following applies: 1 nM E2, 72 h treatment, ± SD of 3 biological replicates. The method, then:
T47D, MCF7, TamR3, and MDA-MB-231 cells were starved for 72 h and then seeded into black clear-bottom 96-well plates (Corning Life Sciences Cat#3904) at 20,000 cells/well (T47D, MCF7, TamR3) or 5,000 cells/well (MDA-MB-231). […] 20 µl of PrestoBlue Cell Viability Reagent (Thermo Fisher A13262) was added to each well and incubated at 37 °C for 1 h. Fluorescence intensity was measured using the TECAN F500 plate reader with emission and excitation wavelengths of […], respectively.

Data set [1] concerns the target T1, full length ERɑ protein, estrogen binding site (EBS) (Homo sapiens, UniProt P03372).
T1 construct: full length ERɑ protein was incubated with Fluormone ES2 Green; purchased ThermoFisher A15882
Nature of the data set: E2-displacement assay (PolarScreen fluorescence polarization). The following applies: fluorescence polarization, 1, 10 and 50 µM. The protocol:
The E2 displacement assay was performed using the PolarScreen Estrogen Receptor Alpha Competitor Assay, Green (ThermoFisher A15882) according to the manufacturer’s protocol. In brief, full length ERɑ protein was incubated with Fluormone ES2 Green (Fluormone Tracer) in the ES2 screening buffer in a black bottom 384-well plate (Corning 3573) in the presence of either 1, 10, or 50 µM of test compounds. The final concentrations in the assay were 2% DMSO (consistent with the MST assay), 4.5 nM fluormone, and 40 nM ERɑ protein. 20 µl of the mixture were added to each well, with triplicates performed for each condition. The plate was incubated in the dark at room temperature for 4 h before fluorescence polarization was measured using a Synergy Neo2 plate reader (BioTek).

The nature of data set [2]: Precipitation in MST assay buffer. It counts as physicochemical. The following applies: 2% DMSO, 0.03 to 1000 µM. The method, then: MST was used to validate the direct binding and measure the binding affinities between the lead compounds and the recombinant ER-LBD. ER-LBD was labeled with red fluorescent dye using a Protein Labeling Kit RED-NHS 2nd Generation (Nanotemper MO-L011) according to the manufacturer’s protocol. The compounds were serially diluted 1:2 in 100% DMSO from 50 to 0.0015 mM, then added to 10 nM of labeled ER protein in the assay buffer (25 mM Tris, pH 8.4, 150 mM NaCl, 20 µM E2, 0.1 mM PMSF, 0.05% Tween20) at final concentrations of 0.03 to 1000 µM. Recombinant proteins in cell free assays are not affected by DMSO concentrations up to 10%. A final concentration of 2% DMSO was chosen for MST as the compounds required this concentration to be soluble in the assay buffer. […] The corresponding data points were removed from the analysis. […] Each protein/compound mixture was then loaded into Monolith Premium Capillaries (Nanotemper MO-K025). All assays were conducted with medium MST power and 20% excitation power. Data analysis and Kd estimation were performed with the MO Affinity Analysis software from Nanotemper.

Data set [3] has as its target T2, ER-SRC3 interaction in TamR3 cells (Homo sapiens, UniProt P03372).
T2 construct: endogenous in cells; host or cells: MCF7 or TamR3 cells
Briefly: Proximity ligation assay (PLA), TamR3. It counts as cell-based. The protocol:
(§1) MCF7 or TamR3 cells were starved for 72 h and then seeded onto PEI coated coverslips in a 6-well plate at 1 × 10^5 cells/well. For the E2 experiments, the cells were treated the following day with 10 µM of ER-AF2 inhibitor for 24 h, with E2 added 1 h before fixation. […] 24 h post-treatment, cells were fixed in methanol:acetone (3:1). Coverslips were then permeabilized with 0.05% Triton X-100 for 5 minutes at room temperature. The Duolink In Situ Detection Reagents Red kit from Millipore Sigma (DUO92008) was used for blocking and PLA according to the manufacturer’s protocol.

Data set [4] addresses ER-Y537S - SRC3 interaction (Homo sapiens, UniProt P03372, Y537S). Briefly: Proximity ligation assay, ER-Y537S mutant. It counts as cell-based. The following applies: PLA, 10 µM. The protocol: as §1, with “protocol. Primary antibodies, Estrogen Receptor alpha antibody (F-10) (sc-8002) and Rabbit anti-SRC3 antibody (A300-348 A), were diluted 1:50 in antibody diluent.” for “protocol.”

For data set [5], the target named is ER-D538G - SRC3 interaction (Homo sapiens, UniProt P03372, D538G). Briefly: Proximity ligation assay, ER-D538G mutant. It counts as cell-based. The following applies: PLA, 10 µM. The protocol: as §1, with “protocol. Primary antibodies, Estrogen Receptor alpha antibody (F-10) (sc-8002) and Rabbit anti-SRC3 antibody (A300-348 A), were diluted 1:50 in antibody diluent.” for “protocol.”
Chain of ER-D538G - SRC3 interaction (P03372 whole entry D538G): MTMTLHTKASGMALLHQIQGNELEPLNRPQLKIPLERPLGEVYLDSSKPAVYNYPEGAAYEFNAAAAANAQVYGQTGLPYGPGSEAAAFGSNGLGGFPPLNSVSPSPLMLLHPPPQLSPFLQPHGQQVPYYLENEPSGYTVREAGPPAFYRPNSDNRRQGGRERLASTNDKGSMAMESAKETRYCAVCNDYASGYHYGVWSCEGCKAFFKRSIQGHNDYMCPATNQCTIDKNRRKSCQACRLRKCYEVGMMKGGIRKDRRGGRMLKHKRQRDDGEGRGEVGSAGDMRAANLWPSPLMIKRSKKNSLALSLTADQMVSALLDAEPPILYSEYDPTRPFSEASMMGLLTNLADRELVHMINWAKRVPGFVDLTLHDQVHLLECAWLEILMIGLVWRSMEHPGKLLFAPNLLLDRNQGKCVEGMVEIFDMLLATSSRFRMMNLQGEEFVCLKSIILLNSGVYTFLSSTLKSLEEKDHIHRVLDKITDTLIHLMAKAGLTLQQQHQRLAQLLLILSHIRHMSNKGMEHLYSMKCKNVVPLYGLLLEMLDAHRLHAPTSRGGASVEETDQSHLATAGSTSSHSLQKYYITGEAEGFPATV

The next data set concerns MCF7 spheroids. Nature of the data set: Viability assay in 3D spheroids, MCF7. Type of data set: cell-based. Conditions: Homo sapiens, 1:2 dilution from 50 µM, 1 nM E2, read-out: IC50 on growth (area) of MCF7 spheroids. The method, then: MCF7 and T47D cells were seeded into a Corning Costar ultra-low attachment, round-bottom, 96-well plate (Millipore Sigma, CLS7007-24EA) at a density of 2,500 cells/well in starvation media. After 4 days of starvation, the cells were treated with a 1:2 serial dilution of inhibitor from 50 µM to 0.2 µM in the presence of 1 nM estradiol. Images were taken every 6 h using the IncuCyte S3 system and spheroid sizes were determined with the IncuCyte analysis software.

In data set [6] the target is T3, ER (ERE-luc) in PC3 cells (Homo sapiens, UniProt P03372).
T3 construct: expressed in transfected cells; host or cells: PC3 cells
T3 sequence (P03372 whole entry): as the sequence (P03372 whole entry D538G) above, with G538D counted along it
Briefly: Nuclear receptor luciferase transcriptional assay, ER. Type of data set: cell-based. The following applies: 1 or 5 µM, 1 nM E2, PC3 cells. The method, then: PC3 cells (androgen receptor (AR)-, glucocorticoid receptor (GR)[…], progesterone receptor (PR)-, ER-) were starved for 72 h then seeded into a 96-well plate at a density of 5,000 cells/well. 24 h later, cells were transfected with either ER, AR, GR, or PR and a luciferase plasmid (ERE-luc for ER and ARR3tk-luc for AR, GR, and PR). 24 h post-transfection, cells were simultaneously stimulated with 1 nM E2 for ER, 0.1 nM R1881 for AR, 1 nM Dexamethasone for GR, or 1 nM Levonorgestrel for PR, and treated with 1 or 5 µM of VPC-260724 24 h post-treatment, cells were lysed with 50 µl of passive lysis buffer (Promega #E1910). 20 µl of lysate was transferred to a white flat-bottom 96-well plate (Corning Life Sciences Cat#3912). Luminescence readings were obtained using the TECAN M200 Pro plate reader following the addition of 50 µl of luciferase reagent (Promega Luciferase Assay System E1500).

T2 sequence (P03372 whole entry): as the sequence (P03372 whole entry D538G) above, with G538D counted along it
Chain of ER-Y537S - SRC3 interaction (P03372 whole entry Y537S): as the sequence (P03372 whole entry D538G) above, with Y537S, G538D counted along it
T1 sequence (P03372 whole entry): as the sequence (P03372 whole entry D538G) above, with G538D counted along it

One may read the IC50 as the concentration that gives 50% inhibition. For `Cc1cccn2c(CNCc3cccc(N(C)C)n3)cnc12` [VPC-260724], the IC50 in the data set on TamR3 cells amounted to 28.9 ± 4.55 µM; in the data set on MCF7 spheroids, 15.6 ± 1.4 µM. In addition, the “Displacement of fluormone (fluorescent E2) from EBS” value in data set [1] is “did not displace the fluormone at any of the tested concentrations”. Also, the “Precipitation after addition of ER protein” value in data set [2] is given as “did not exhibit precipitation at any concentration”. Also, the “ER-SRC3 interaction in TamR3 in presence of tamoxifen” value in data set [3] (10 µM with 1 µM Tamoxifen) is “reduced this interaction”. Further, in data set [3] (10 µM, 48 h, E2 stimulation), the “ER-SRC3 interactions (PLA signals per nuclei), TamR3” value is on record as “significantly reduced ER-SRC3 interactions”. The “Interaction between SRC3 and ER-Y537S” value in data set [4] is given as “inhibited the interaction”. The “Interaction between SRC3 and ER-D538G” value in data set [5] is reported as “inhibited the interaction”. The “Transcriptional activity of ER” value in data set [6] was “dose-dependent inhibition”.

For the origin of these results see PMC11590367, “Characterization of novel small molecule inhibitors of estrogen receptor-activation function 2 (ER-AF2)” (Breast Cancer Research : BCR, 2024).
